Laboratory results reported in US10172911B2, “Methods of modulating erythropoiesis with arginine vasopressin receptor 1B molecules” (The United States of America, as represented by the …, priority 2013, dated 2019).
Entries after “also recorded” stand apart in the source; their conditions may differ.

Legend:
[1] = test system: human CD34+ hematopoietic progenitors; test: Intracellular Ca2+ measurement in Fura-2 loaded human CD34+ hematopoietic progenitors; assay type: cell-based; details: human CD34+ cells, agonist stimulation
Protocol: Human BMSCs were loaded with Fura-2 and the cells were stimulated with AVP, or OXT. Intracellular Ca^2+ concentration was assayed as described before (Ely, J. A. et al. J Biol Chem 266, 18635-18641 (1991). To study their response to AVP and specific AVP receptor agonists and antagonists human CD34+ hematopoietic progenitors were Fura-2 loaded and Cytoplasmic Ca2+ measurements were performed in cells kept in suspension using a fluorescence spectrophotometer (Deltascan, Photon Technology International). Ratiometric measurements were recorded at 340/380 nm excitation and 500 nm emission and the ratios were plotted against time. Ionomycin (10 μM) was added at the end of each run to determine the maximum fluorescence ratio.

[2] = test system: mouse bone marrow LSK cells; test: BrdU cell proliferation assay, sorted mouse bone marrow LSK cells; assay type: cell-based; details: 10^−8M-10^−14M, 2 days culture
Protocol: Sorted mouse bone marrow LSK cells (10000 cells/well) were plated in a 96 well plate in Stemspan serum free expansion medium ([…] Technologies, Vancouver, Canada) with Pen/Strep, and the following hematopoietic factors: 100 ng/ml TPO, 50 ng/ml FLT3L, 50 ng/ml IL-3 and SCF 100 ng/ml (Peprotech, Rocky Hill, N.J.). Cells were treated with […] (Sigma-Aldrich, St. Louis, Mo.). When using human CD34^+ cells (5000 cells/well), human SCF, TPO, FLT3L and G-CSF (Peprotech, each at 50-100 ng/ml) were added to the Stemspan medium. Cells were treated with 10^−8M-10^−14M AVP. After 24 hours, BrdU at a 1:1000 concentration was added to the cultures and incorporation of BrdU was measured using the Cell Proliferation ELISA BrdU kit (Roche, Mannheim, Germany) after another 24 hours of incubation.

[3] = test system: CD34^+ cells from healthy donors; test: CFU assay (E-CFU, GM-CFU) of human CD34+ cells in Methocult; assay type: cell-based; details: per 1000 plated CD34+ cells; 10^−8 M
Protocol: CD34^+ cells from healthy donors were plated into semi-solid methylcellulose medium (Methocult) containing hematopoietic factors (GM-CSF 5 ng/ml, IL-3 5 ng/ml, SCF 50 ng/ml, EPO 2.5 U/ml).
The number of erythroid colony forming units (E-CFU) and granulocyte-macrophage colony forming units (GM-CFU) were determined based on morphological criteria on 7th and 14th days in culture.

β-catenin = β-catenin immunostaining of AVP-stimulated human CD34+ cells; assay type: cell-based; details: 10^−10 M, 24 hours
Description: FIGS. 3A-3D show studies of signaling pathways. FIG. 3A provides results from CFU assays showing E-CFU and GM-CFU numbers/1000 plated cells. […] Error bars represent means±SD * p<0.05, ** p<0.01, unpaired t-test. […] The cells were then fixed with 4% paraformaldehyde and washed before immunostaining. Following permeabilization with Triton-X 100 a primary antibody to β-catenin was applied followed by a fluorescent secondary antibody. The β-catenin translocated to the nucleus at the 10^−10 AVP concentration confirming the activation of the Wnt pathway. Scale: 10 μm. […] Using Q-PCR to detect changes in genes that reflect Wnt pathway activation, increases in CCND1, MYC and LEF1 in response to AVP stimulation were observed.
FIGS. 8A-8C show AVP stimulation results in the nuclear translocation of β-catenin affecting the Wnt pathway. […] The cells were then fixed with 4% paraformaldehyde and washed before immunostaining. Following permeabilization with Triton-X 100, a primary antibody to β-catenin was applied followed by a fluorescent secondary antibody. The β-catenin translocated to the nucleus at the 10^−10 M AVP concentration confirming the activation of the Wnt pathway. Scale: 10 μm. FIG. 8B CFU assays showing E-CFU and GM-CFU numbers/1000 plated cells. […] Error bars represent means±SD * p<0.05, ** p<0.01, unpaired t-test.

mice [4] = test: Peripheral blood values following EPO vs. AVP injections in hemorrhage; assay type: in vivo, mouse
Protocol: AVP (100 μg/kg bodyweight) or EPOetin alfa (50 U/bodyweight, EPOgen) was administered intra-peritoneally to mice, immediately following hemorrhage. […] Hematocrit and reticulocyte counts were measured at different time points.

mice [5] = test: EPO neutralization study in hemorrhage; assay type: in vivo, mouse
Protocol: To infuse vasopressin into the mice, AVP filled ALZET pumps were implanted subcutaneously on the dorsal aspect of the neck (5 ug/day, Alzet 1007D—7 days, 2002-14 days). Vasopressin was also given immediately and 6 hours later as a bolus injection (100 μg/kg). Alzet pumps were inserted subcutaneously. The dimensions and pump specification are: ALZET, (DURECT Corporation, Cupertino, Calif., USA) mini-osmotic pump models 1007D or 2002. The pumps deliver 0.5 μl/h of the desired substance for a for 2-week period. In some cases, erythropoietin antibody (100 μg/mice) was given before anesthesia with the corresponding control antibody. […] Following the initial hemorrhage blood samples were taken at 2, 4 and in some cases 6 days later to determine hematocrit and corrected reticulocyte values.
In some cases Erythropoietin antibody (100 μg/mice) was given before anesthesia with the corresponding control antibody.

Human BMSCs = test: BMSC signalling (ERK phosphorylation, cAMP, intracellular Ca2+); assay type: cell-based; details: BMSC cultures
Protocol: For cAMP quantitation, 8×10^5 per well human BMSCs were plated in 6 well plates and left to attach overnight. Next day, the medium was changed and the cells were stimulated with AVP or deamino-Cys^1, D-Arg^8 AVP (DDAVP, a V2 receptor agonist) at 10^−6 M for 4 minutes. Cells were washed with PBS and lysed with R&D cell lysis buffer. Cyclic AMP was measured with the R&D cAMP Parameter assay kit (R&D Systems, Minneapolis, Minn.) according to manufacturer's instructions. Total protein concentrations of the cell lysates were measured using the Micro BCA Protein Assay kit (Pierce, Rockford, Ill.) and cAMP amount was normalized to 100 μg of total protein.

splenectomized mice = test: Hemorrhage in splenectomized mice; assay type: in vivo, mouse; details: splenectomized mice vs controls
Protocol: Three to four month old mice were splenectomized and recovered for a month. AVP was administered at the time of bleeding and blood was sampled 2 and 4 days later for hematocrit and reticulocyte measurements.

WT mice = test: AVP infusion in unmanipulated WT mice; assay type: in vivo, mouse; details: infused over a 3 week period

Question: `NC(=O)CC[C@@H]1NC(=O)[C@H](Cc2ccccc2)NC(=O)[C@H](Cc2ccc(O)cc2)NC(=O)[C@@H](N)CSSC[C@@H](C(=O)N2CCC[C@H]2C(=O)N[C@@H](CCCN=C(N)N)C(=O)NCC(N)=O)NC(=O)[C@H](CC(N)=O)NC1=O` [AVP, [Arg8]-Vasopressin] was tested. Which intracellular calcium levels [1] did it give?
Answer: Its intracellular calcium levels is “increases in their intracellular calcium levels; also recorded: increase in intracellular calcium; also recorded: increased intra-cellular Ca^2+ concentrations”.

Question: And the “proliferation (BrdU incorporation) of mouse LSK cells” value [2]?
Answer: Its value is “induced proliferation; also recorded: stimulated LSK proliferation; also recorded: significantly increased the proliferation”.

Question: What about the “erythroid-colony forming unit (E-CFU) numbers” value [3] of the same compound?
Answer: The value was “significantly increased; also recorded: increased erythroid colony formation”.

Question: What about the “granulocyte macrophage-colony forming unit (GM-CFU) numbers” value [3] of the same compound?
Answer: Its value is “increased both E-CFU and GM-CFU in another”.

Question: What about the “nuclear translocation of β-catenin” value (β-catenin) of the same compound?
Answer: Its value is “drives nuclear translocation of β-catenin; also recorded: had this effect”.

Question: And the “increase in hematocrit compared to PBS” value (mice [4]; AVP 100 μg/kg i.p. just after hemorrhage)?
Answer: The value was “only statistically significant at 12 and 24 hours; also recorded: significant increase in hematocrit 12 hours following the insult”.

Question: What about the “differences in hematocrit between EPO and AVP” value (mice [4]; after hemorrhage) of the same compound?
Answer: Its value is “significant at 6, 12 and 24 hours and disappeared 5 days after hemorrhage”.

Question: What about the CR numbers (mice [5]; EPO neutralized group, day 6) of the same compound?
Answer: The CR numbers was “began to increase CR numbers”.

Question: And the “CR values over PBS” value (mice [5]; EPO neutralized, day 4)?
Answer: The value was “eliminated this difference”.

Question: What about the hematocrit values (mice [5]; after EPO neutralization, hemorrhage) of the same compound?
Answer: Its hematocrit values is “significantly increased hematocrit values”.

Question: And the “CR values over PBS” value (mice [5]; control mice, day 4 and 6)?
Answer: The value was “increased the CR values over PBS”.

Question: What about the “corrected reticulocyte (CR) values, EPO neutralized or control groups, AVP or PBS” value (mice [5]; day 2) of the same compound?
Answer: Its value is “no significant difference”.

Question: And the ERK phosphorylation (Human BMSCs)?
Answer: The ERK phosphorylation was “induced ERK phosphorylation”.

Question: And the “cyclic AMP” value (Human BMSCs; 10^−6 M for 4 minutes)?
Answer: Its value is “increase in cyclic AMP”.

Question: What about the AVP-induced hematocrit response (splenectomized mice) of the same compound?
Answer: Its AVP-induced hematocrit response is “no different from controls”.

Question: And the RBC numbers (WT mice)?
Answer: The RBC numbers was “gradually increased RBC numbers”.
